Data reported in patent US12653899B2, “Multi-targeted, tunable, sustained delivery of payloads to charged avascular tissues” (Massachusetts Institute of Technology, priority 2019, dated 2026).

Assays:
[1] = test system: human ankle cartilage explants treated with IL-1β; assay: Cumulative sGAG loss and final sGAG content (DMMB) in IL-1β challenge, human ankle cartilage; assay type: cell-based; conditions: 100 pg/ml IL-1β; for cumulative sGAG loss compared to the untreated control: 10-day time point
Experimental: Preliminary dose response experiments were performed to test the effects of human IL-1β (PeproTech, Rocky Hill, NJ) on human ankle cartilage. Ankle cartilage explants from two different donors (equilibrated in culture medium post-harvest) were cultured in serum-free low glucose medium (same composition as equilibration medium) and treated with continuous IL-1β doses ranging from 10 pg/ml to 1 ng/ml for 8 days. The experiments also included groups of explants that were treated with 300 ng/ml free IGF-1 at each dose level of IL-1β. Based on the results of these experiments, 100 pg/ml IL-1β was chosen as the dose used for the fusion protein dose response experiments. In these experiments, ankle and knee cartilage explants (equilibrated in culture medium post-harvest) were treated continuously with IL-1β and received single doses of fusion proteins (ranging from 39.2 nM to 2 μM) at the start of the experiments. Media changes with IL-1β but without fusion proteins were performed once every 2 to 3 days. An untreated control group, a control with continuous IL-1β alone, and a control with IL-1β combined with continuous free IGF-1 (300 ng/ml or 39.2 nM) were included. Experiments were terminated at 7-day and 10-day timepoints, and the sGAG biosynthesis rate, metabolic rate, sGAG loss to culture medium and sGAG content of the explants were measured.
The metabolic rate of cartilage explants was measured using the Alamar Blue assay (ThermoFisher). Cartilage explants were incubated for 3 hours in a 1× solution of Alamar Blue dissolved in culture medium. At the end of the incubation period, the absorbance of the medium at 570 nm and 600 nm was measured using a microplate reader (Synergy H1 Hybrid Multi-Mode Microplate Reader, BioTek). These readings were used to calculate the percentage reduction of Alamar Blue, which is directly proportional to the explant metabolic rate. These values were first normalized by individual explant weights. Following this, the weight-normalized readings for the treatment groups were normalized by the weight-normalized mean value for the untreated controls. To measure the chondrocyte biosynthesis rate of sulfated glycosaminoglycans (sGAGs), cartilage explants were cultured in the presence of 10 μCi/mL 35S-sulfate radiolabel during the final two days of each experiment. […] To calculate the cumulative loss of GAGs from the explants, the amount of sGAG lost to the medium and that left behind in the explants at the end of the experiment were measured using the dimethylene blue (DMMB) dye binding assay (Farndale et al., Biochim Biophys Acta. 883(2):173-177 (1986)).

[2] = test system: human knee cartilage explants; assay: Aggrecan/sGAG biosynthesis rate (35S-sulfate incorporation) in human knee cartilage explants; assay type: cell-based
Experimental: (§1) Cartilage was harvested from the knee joint of a donor. Cartilage explants were equilibrated in culture media for 2 days after harvest. […] These were cut down to 1 mm thickness and allowed to equilibrate for a further 2 days before the experiment was set up. Subsets of the experiment were terminated at 3 days and 7 days from the start of the experiment. Media changes were performed every 2 to 3 days.
For the 3-day termination experiment, chondrocyte biosynthesis rate (primarily aggrecan synthesis) was measured between days 0 and 3 of the experiment using a 35S-sulfate radiolabel. For the 7-day termination experiment, this measurement was done between days 5 and 7. Statistics: 1-way ANOVA with post-hoc Tukey's HSD test.
as §1, with “for 3” for “for 2”, “further 3” for “further 2”
Cartilage explants that were equilibrated in culture medium post-harvest were transferred to ultra-low attachment cell culture plates (Corning) for dose response experiments. All experiments were carried out in low glucose, serum free medium (same composition as equilibration medium). Previous studies studying the effects of IGF-1 on cartilage explants have used doses ranging from 10 ng/ml to 300 ng/ml. Based on these, 300 ng/ml (equivalent to 39.2 nM) of free recombinant human IGF-1 (PeproTech, Rocky Hill, NJ) was used as the positive control.
Since each fusion protein had one IGF-1 domain, equivalent doses (39.2 nM) of these were tested. In addition to this, 500 nM, 1 μM and 2 μM doses of fusion proteins were also tested. In all cases, only a single dose of the fusion proteins was added at the start of the experiment, and media changes were carried out without fusion proteins once every 2 to 3 days thereafter. In contrast, continuous doses of free IGF-1 were used for the positive control. An untreated control group was also included in the experiments. Experiments were terminated at 3-day, 7-day and 15-day time points. Outcome measures included the biosynthesis rate of sulfated glycosaminoglycans (sGAG), explant metabolic rate, sGAG loss to the culture medium and the explant sGAG content at the end of the experiment.
The metabolic rate of cartilage explants was measured using the Alamar Blue assay (ThermoFisher). Cartilage explants were incubated for 3 hours in a 1× solution of Alamar Blue dissolved in culture medium. At the end of the incubation period, the absorbance of the medium at 570 nm and 600 nm was measured using a microplate reader (Synergy H1 Hybrid Multi-Mode Microplate Reader, BioTek). These readings were used to calculate the percentage reduction of Alamar Blue, which is directly proportional to the explant metabolic rate. These values were first normalized by individual explant weights. Following this, the weight-normalized readings for the treatment groups were normalized by the weight-normalized mean value for the untreated controls. To measure the chondrocyte biosynthesis rate of sulfated glycosaminoglycans (sGAGs), cartilage explants were cultured in the presence of 10 μCi/mL 35S-sulfate radiolabel during the final two days of each experiment. Following this, the explants were washed with PBS with non-radioactive sulfate to wash out excess radiolabel, weighed and digested with proteinase K. A liquid scintillation counter (PerkinElmer) was used to measure the amount of radiolabel incorporated within the extracellular matrix of the tissues. Radiolabel incorporation data were normalized by the duration of exposure to radiolabel and by the wet weight of the explants (Li et al., Osteoarthritis and Cartilage 23(2):266-274 (2015)). […]

[3] = Experiment 1, knee, donor, single 500 nM dose, 3-day time point (days 0-3)
[4] = Experiment 2, knee, donor, single 2 μM dose, 3-day time point
[5] = Experiment 2, knee, single 1 μM dose, 7-day time point
[6] = Experiment 2, knee, single 2 μM dose, 7-day time point

Substance | cumulative sGAG loss compared to the untreated control ([1]; single 500 nM dose) | aggrecan biosynthesis rate compared to the untreated control [2, 3] | aggrecan biosynthesis rate compared to the untreated control ([2]; Experiment 1, knee, donor, single 2 μM dose, 3-day time point) | mean aggrecan biosynthesis rate at Day 7 versus Day 3 ([2]; Experiment 1, knee, single 500 nM and 2 μM doses on Day 0) | aggrecan biosynthesis rate compared to the untreated control ([2]; Experiment 1, knee, single 500 nM dose, 7-day time point (days 5-7)) | aggrecan biosynthesis rate compared to the untreated control ([2]; Experiment 1, knee, single 2 μM dose, 7-day time point) | aggrecan biosynthesis rate compared to the untreated control ([2]; Experiment 2, knee, donor, single 500 nM dose, 3-day time point) | aggrecan biosynthesis rate compared to the untreated control [2, 4] | aggrecan biosynthesis rate compared to the untreated control [2, 5] | aggrecan biosynthesis rate compared to the untreated control [2, 6] | cumulative sGAG loss to the medium compared to the untreated control ([1]; 7-day time point (FIG. 15C)) | aggrecan biosynthesis rate compared to the untreated control ([2]; Experiment 1, knee, donor, continuous 40 nM free IGF-1, 3-day time point) | aggrecan biosynthesis rate compared to the untreated control ([2]; Experiment 1, knee, continuous 40 nM free IGF-1, 7-day time point) | aggrecan biosynthesis rate compared to the untreated control ([2]; Experiment 2, knee, continuous 40 nM free IGF-1, 3-day time point) | aggrecan biosynthesis rate compared to the untreated control ([2]; Experiment 2, knee, continuous 40 nM free IGF-1, 7-day time point) | cumulative sGAG loss compared to the untreated control ([1]; single 2 μM dose) | aggrecan biosynthesis rate compared to the untreated control ([2]; Experiment 2, knee, donor, single 1 μM dose, 3-day time point)
(+9GFP)-(GGGGS)4-(IGF-1): fusion protein of +9 GFP and human IGF-1 with flexible (GGGGS)4 linker, SEQ ID NO: 7 | higher cumulative sGAG loss | significantly higher | not statistically significantly different | the same as the rate on Day 3 | not statistically significantly different | not statistically significantly different | statistically significantly higher | statistically significantly higher | statistically significantly higher | statistically significantly higher | – | – | – | – | – | – | –
IGF-1: free recombinant human IGF-1 (PeproTech), pro-anabolic growth factor used as the positive control | – | – | – | – | – | – | – | – | – | – | higher cumulative sGAG loss | significantly higher | significantly higher | statistically significantly higher | statistically significantly higher | – | –
(+9GFP)-(EAAAK)3-(IGF-1): fusion protein of +9 GFP and human IGF-1 with rigid (EAAAK)3 linker, SEQ ID NO: 8 | – | not statistically significantly different | – | – | – | – | – | statistically significantly higher | statistically significantly higher | statistically significantly higher | – | – | – | – | – | higher cumulative sGAG loss | statistically significantly higher
